# Source: patent US10406246B2, “Double-labeled probe for molecular imaging and use thereof” (DEUTSCHES KREBSFORSCHUNGSZENTRUM, priority 2013, dated 2019)
# Columns and labels:
# [1] = tested on: LNCaP tumor; assay: comparative PET imaging of 68Ga-labeled PSMA-HBED-CC conjugates; format: in vivo; conditions: 1 hour post injection, LNCaP tumor-bearing nude mice
# Method: The ^68Ga-labeled compounds PSMA-HBED-CC-FITC (the compound depicted above), PSMA-Ahx-HBED-CC-cyanine 5.5 (the compound depicted above, of which the mass was determined by mass spectrometry as being M(calculated)=1642.98; M(found)=1642.7) and PSMA-Ahx-HBED-CC (the corresponding compound without cyanine 5.5) and were injected into an LNCaP tumor-bearing nude mice. One hour post injection, […] was performed.
# [2] = tested on: LNCaP tumor; assay: comparative organ distribution versus Banerjee reference compounds; format: in vivo; conditions: 1 hour post injection, LNCaP tumor-bearing nude mice
# Method: PSMA-Ahx-HBED-CC-FITC (as shown above) was compared with a reference compound published by Banerjee et al. (Banerjee et al., 2011, Angew Chem Int Ed Engl. 50(39):9167-9170, page 6, scheme 1, final product) and the corresponding compound without the fluorescent dye IRDye800CW bearing a free amino group of the lysyl moiety the dye IRDye800CW can be bound to. These compounds were injected into LNCaP tumor-bearing nude mice.
# [3] = target: T1, PSMA (Homo sapiens, UniProt Q04609); assay: in vitro competitive cell binding assay on LNCaP cells against 68Ga-labeled [Glu-urea-Lys(Ahx)]2-HBED-CC; conditions: 12 concentrations of analyte 0-5000 nM, mean of three experiments
# T1 construct: host or cells: LNCaP cells
# Method: (§1) The competitive cell binding assay and internalization experiments were performed as described previously (Eder et al. 2012). Briefly, the respective cells (10^5 per well) were incubated with the radiometal (^68Ga-labeled [Glu-urea-Lys(Ahx)]2-HBED-CC (Schafer et al. 2012)) in the presence of 12 different concentrations of analyte (0-5000 nM, 100 μL/well). After incubation, washing was carried out using a multiscreen vacuum manifold (Millipore, Billerica, Mass.). Cell-bound radioactivity was measured using a gamma counter (Packard Cobra II, GMI, Minnesota, USA). The 50% inhibitory concentration (IC50) was calculated by fitting the data using a nonlinear regression algorithm (GraphPad Software). Experiments were performed three times.
# as §1, with “al.,” for “al.”, “radioligand” for “radiometal”, “(Schäfer” for “(Schafer”, “The 50% inhibitory concentration (IC50) was calculated by fitting the data using a nonlinear regression algorithm (GraphPad Software). Experiments were performed three times.” left out
# [4] = tested on: PSMA positive LNCaP tumors; assay: organ distribution in LNCaP tumor bearing xenografts; format: in vivo, BALB/c nu/nu mice; conditions: 68Ga-labeled, 1 h post injection; for Organ distribution, Blood, Mean / Organ distribution, Brain, Mean / Organ distribution, Heart, Mean / Organ distribution, Intestine, Mean / Organ distribution, Kidney, Mean / Organ distribution, Liver, Mean / Organ distribution, Lung, Mean / Organ distribution, Muscle, Mean / Organ distribution, Spleen, Mean / Organ distribution, Tumor (tumor uptake), Mean: 0.06 nmol, tail vein, n=3; for distribution profile in healthy organs: both compounds compared with each other; for Organ distribution, Tumor (tumor uptake), Mean: PSMA positive LNCaP tumors
# Method: 7- to 8-week-old male BALB/c nu/nu mice (Charles River Laboratories) were subcutaneously inoculated into the right trunk with 5×10^6 cells of LNCaP (in 50% Matrigel; Becton Dickinson, Heidelberg, Germany). The tumors were allowed to grow until approximately 1 cm^3 in size. The radiolabeled compounds were injected into the tail vein (approx. 1 MBq per mouse; 0.06 nmol). At 1 h after injection the animals were sacrificed. Organs of interest were dissected, blotted dry, and weighed. The radioactivity was measured using a gamma counter and calculated as % ID/g.
# [5] = tested on: LNCaP cells; assay: specific cell uptake, cell surface binding and internalization; format: cell-based, human; conditions: 68Ga-labeled
# Method: To determine the specific cell uptake and internalization, 10^5 cells were seeded in poly-L-lysine coated 24-well cell culture plates 24 h before incubation. After washing, the cells were incubated with 25 nM of the radiolabeled compounds for 45 min at 37° C. and at 4° C., respectively. Specific cellular uptake was determined by competitive blocking with 2-(phosphonomethyl)pentanedioic acid (500 μM final concentration, PMPA, Axxora, Loerrach, Germany). Cellular uptake was terminated by washing 4 times with 1 mL of ice-cold PBS. Cells were subsequently incubated twice with 0.5 mL glycine-HCl in PBS (50 mM, pH=2.8) for 5 min to remove the surface-bound fraction. The cells were washed with 1 mL of ice-cold PBS and lysed using 0.3 N NaOH (0.5 mL). The surface-bound and the internalized fractions were measured in a gamma counter. The cell uptake was calculated as percent of the initially added radioactivity bound to 10^6 cells [% ID/10^6 cells].
# T1 sequence (Q04609 whole entry): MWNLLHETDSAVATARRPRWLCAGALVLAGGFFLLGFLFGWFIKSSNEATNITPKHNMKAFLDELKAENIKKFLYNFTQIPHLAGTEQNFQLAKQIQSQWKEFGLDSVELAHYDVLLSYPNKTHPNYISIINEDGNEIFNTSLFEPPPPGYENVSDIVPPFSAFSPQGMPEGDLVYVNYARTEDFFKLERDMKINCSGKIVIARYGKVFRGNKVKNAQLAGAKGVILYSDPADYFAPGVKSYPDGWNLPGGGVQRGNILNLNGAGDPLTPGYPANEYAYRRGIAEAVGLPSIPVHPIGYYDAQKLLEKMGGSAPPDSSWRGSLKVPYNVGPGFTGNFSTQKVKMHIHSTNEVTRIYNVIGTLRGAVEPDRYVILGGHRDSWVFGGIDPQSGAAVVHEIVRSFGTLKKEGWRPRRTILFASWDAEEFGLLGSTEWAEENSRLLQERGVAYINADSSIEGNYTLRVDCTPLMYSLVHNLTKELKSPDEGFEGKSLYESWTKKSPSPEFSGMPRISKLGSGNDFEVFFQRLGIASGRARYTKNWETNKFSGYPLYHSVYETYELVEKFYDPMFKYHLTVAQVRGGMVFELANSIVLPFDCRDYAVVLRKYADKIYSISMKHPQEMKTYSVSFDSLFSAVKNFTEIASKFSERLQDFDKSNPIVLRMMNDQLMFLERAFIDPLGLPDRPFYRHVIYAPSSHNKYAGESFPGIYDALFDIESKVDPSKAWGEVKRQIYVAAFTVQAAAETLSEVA
Structure (SMILES),distribution of radioactivity and tumor uptake (PET imaging) [1],tumor uptake versus Banerjee reference compounds [2],IC50 [3] [µM],"Organ distribution, Blood, Mean [4] [% ID/g]","Organ distribution, Brain, Mean [4] [% ID/g]","Organ distribution, Heart, Mean [4] [% ID/g]","Organ distribution, Intestine, Mean [4] [% ID/g]","Organ distribution, Kidney, Mean [4] [% ID/g]","Organ distribution, Liver, Mean [4] [% ID/g]","Organ distribution, Lung, Mean [4] [% ID/g]","Organ distribution, Muscle, Mean [4] [% ID/g]","Organ distribution, Spleen, Mean [4] [% ID/g]",distribution profile in healthy organs [4],"Organ distribution, Tumor (tumor uptake), Mean [4] [% ID/g]","Organ distribution, Tumor (tumor uptake), Mean ([4]; listed as Glu-urea-Lys-HBED-CC) [% ID/g]","internalization by LNCaP cells ([5]; 25 nM, 45 min, competitive blocking with 500 μM 2-PMPA (P<0.001))",cell uptake and internalization profile versus Glu-urea-Lys-HBED-CC ([5]; LNCaP cells),"Organ distribution, Tumor (tumor uptake), Mean ([4]; listed as Glu-urea-Lys-HBED-CC-dye) [% ID/g]"
CN1/C(=C/C=C/C=C/C2=[N+](CCCCCC(=O)NCCOCCOCCNC(=O)CCc3ccc(O)c(CN(CCN(CC(=O)O)Cc4cc(CCC(=O)NCCCCCC(=O)NCCCCC(NC(=O)NC(CCC(=O)O)C(=O)O)C(=O)O)ccc4O)CC(=O)O)c3)c3ccc4ccccc4c3C2(C)C)C(C)(C)c2c1ccc1ccccc21 (centres unmarked) [PSMA-Ahx-HBED-CC-cyanine 5.5],comparable distribution of radioactivity and tumor uptake,,,,,,,,,,,,,,,,,
O=C(O)CCC(NC(=O)NC(CCCCNC(=O)CCCCCNC(=O)CCc1ccc(O)c(CN(CCN(CC(=O)O)Cc2cc(CCC(=O)NCCOCCOCCNC(=S)Nc3ccc4c(c3)C(=O)OC43c4ccc(O)cc4OC4C=C(O)C=CC43)ccc2O)CC(=O)O)c1)C(=O)O)C(=O)O (centres unmarked) [PSMA-Ahx-HBED-CC-FITC],,significantly improved,,,,,,,,,,,,,,,,
"O=C(O)CCc1ccc(O)c(CN(CCN(CC(=O)O)Cc2cc(CCC(=O)NCCCCCC(=O)NCCCC[C@H](NC(=O)N[C@@H](CCC(=O)O)C(=O)O)C(=O)O)ccc2O)CC(=O)O)c1 [Glu-urea-Lys(Ahx)-HBED-CC, reference compound]",comparable distribution of radioactivity and tumor uptake,,0.00982 ± 0.00126,0.53,0.40,0.83,1.14,139.44,1.43,2.36,1.00,17.88,comparable,4.89±1.34,4.89,,,
O=C(O)CCC(NC(=O)NC(CCCCNC(=O)CCc1ccc(O)c(CN(CCN(CC(=O)O)Cc2cc(CCC(=O)NCCOCCOCCNC(=S)Nc3ccc4c(c3)C(=O)OC43c4ccc(O)cc4Oc4cc(O)ccc43)ccc2O)CC(=O)O)c1)C(=O)O)C(=O)O (centres unmarked) [Glu-urea-Lys-HBED-CC-Fluorescein],comparable distribution of radioactivity and tumor uptake,,0.0111 ± 0.00116,1.34,0.31,2.22,0.81,138.18,1.71,3.09,1.84,45.24,comparable,10.86±0.94,,specifically internalized,not considerably changed,10.86
